The source of these data is ChEMBL document CHEMBL1143531, “Synthesis, in vitro, and in vivo antibacterial activity of nocathiacin I thiol-Michael adducts” (2005).

Values after ≈ are worked out from the molar mass of the structure shown.

As usually defined, the MIC is the smallest concentration in the dilution series that meets the test's criterion for growth inhibition. Low readings indicate greater potency, high ones weaker potency.

Common to all, as to type: functional
One experiment concerns Staphylococcus aureus. In words: In vitro minimum inhibitory concentration against methicillin sensitive […] A15090.
Another experiment concerns Mus musculus. The experiment in a line: In vivo protective dose required for mouse against systemic lethal […] infection. Particulars: read-out: PD50.
The next experiment deals with Streptococcus pneumoniae. In words: In vitro minimum inhibitory concentration against penicillin resistant Streptococcus pneumoniae A28272.
For a further experiment, the system named is Enterococcus faecalis. In words: In vitro minimum inhibitory concentration against methicillin sensitive Enterococcus faecalis A20688.

For `CO/C(C)=C1/NC(=O)C([C@@H](C)O)NC(=O)c2csc(n2)-c2cc(O)c(-c3nc(C(=O)NC(SC4CN5CCC4C5)C(N)=O)cs3)nc2-c2csc(n2)[C@@H]2COC(=O)c3c4c5c(cccc5n3O)COC(=O)[C@@H](O[C@H]3C[C@](C)(O)[C@H](N(C)C)[C@H](C)O3)[C@@H](OC4)[C@H](NC(=O)c3csc1n3)c1nc(cs1)C(=O)N2` (some centres not stated), the MIC against Staphylococcus aureus came out at 2 µg/mL (≈ 1.29 µM); with Streptococcus pneumoniae, 0.25 µg/mL (≈ 0.161 µM); against Enterococcus faecalis, 2 µg/mL (≈ 1.29 µM). Also, the ED50 in the experiment on Mus musculus worked out at 2.5 mg/kg.
`CO/C(C)=C1/NC(=O)C([C@@H](C)O)NC(=O)c2csc(n2)-c2cc(O)c(-c3nc(C(=O)NC(SC(CC(=O)O)C(=O)O)C(N)=O)cs3)nc2-c2csc(n2)[C@@H]2COC(=O)c3c4c5c(cccc5n3O)COC(=O)[C@@H](O[C@H]3C[C@](C)(O)[C@H](N(C)C)[C@H](C)O3)[C@@H](OC4)[C@H](NC(=O)c3csc1n3)c1nc(cs1)C(=O)N2` (some centres not stated): the MIC with Staphylococcus aureus stood at 4 µg/mL (≈ 2.54 µM); against Streptococcus pneumoniae, 0.25 µg/mL (≈ 0.159 µM); in the experiment with Enterococcus faecalis, 4 µg/mL (≈ 2.54 µM). In addition, the ED50 in the experiment with Mus musculus was > 10 mg/kg.
For the compound `CO/C(C)=C1/NC(=O)C([C@@H](C)O)NC(=O)c2csc(n2)-c2cc(O)c(-c3nc(C(=O)NC(SCC(N)C(=O)O)C(N)=O)cs3)nc2-c2csc(n2)[C@@H]2COC(=O)c3c4c5c(cccc5n3O)COC(=O)[C@@H](O[C@H]3C[C@](C)(O)[C@H](N(C)C)[C@H](C)O3)[C@@H](OC4)[C@H](NC(=O)c3csc1n3)c1nc(cs1)C(=O)N2` (some centres not stated), the minimal inhibitory concentration (MIC) with Staphylococcus aureus is 1 µg/mL (≈ 0.647 µM); against Streptococcus pneumoniae it was 2 µg/mL (≈ 1.29 µM); against Enterococcus faecalis, 4 µg/mL (≈ 2.59 µM).
On to `CO/C(C)=C1/NC(=O)C([C@@H](C)O)NC(=O)c2csc(n2)-c2cc(O)c(-c3nc(C(=O)NC(SCCN(C)C)C(N)=O)cs3)nc2-c2csc(n2)[C@@H]2COC(=O)c3c4c5c(cccc5n3O)COC(=O)[C@@H](O[C@H]3C[C@](C)(O)[C@H](N(C)C)[C@H](C)O3)[C@@H](OC4)[C@H](NC(=O)c3csc1n3)c1nc(cs1)C(=O)N2` (some centres not stated), for which the values for the minimum inhibitory concentration (MIC) against Staphylococcus aureus, with Streptococcus pneumoniae and with Enterococcus faecalis were 0.125 µg/mL (≈ 0.0818 µM), 0.015 µg/mL (≈ 0.00981 µM) and 0.25 µg/mL (≈ 0.164 µM), respectively. Further, the ED50 in the experiment with Mus musculus stood at 1 mg/kg.
On the same counts, the results for `CO/C(C)=C1/NC(=O)C([C@@H](C)O)NC(=O)c2csc(n2)-c2cc(O)c(-c3nc(C(=O)NC(SCCc4nnn[nH]4)C(N)=O)cs3)nc2-c2csc(n2)[C@@H]2COC(=O)c3c4c5c(cccc5n3O)COC(=O)[C@@H](O[C@H]3C[C@](C)(O)[C@H](N(C)C)[C@H](C)O3)[C@@H](OC4)[C@H](NC(=O)c3csc1n3)c1nc(cs1)C(=O)N2` (some centres not stated) are 2 µg/mL (≈ 1.29 µM), 0.25 µg/mL (≈ 0.161 µM), 32 µg/mL (≈ 20.6 µM) and > 10 mg/kg.
On the same counts, the results for `CO/C(C)=C1/NC(=O)C([C@@H](C)O)NC(=O)c2csc(n2)-c2cc(O)c(-c3nc(C(=O)NC(SC[C@@H]4NC(=O)NC4=O)C(N)=O)cs3)nc2-c2csc(n2)[C@@H]2COC(=O)c3c4c5c(cccc5n3O)COC(=O)[C@@H](O[C@H]3C[C@](C)(O)[C@H](N(C)C)[C@H](C)O3)[C@@H](OC4)[C@H](NC(=O)c3csc1n3)c1nc(cs1)C(=O)N2` (some centres not stated) are 4 µg/mL (≈ 2.55 µM), 0.03 µg/mL (≈ 0.0191 µM), 128 µg/mL (≈ 81.5 µM) and > 10 mg/kg.
As for `CCN(CC)CCSC(NC(=O)c1csc(-c2nc3c(cc2O)-c2nc(cs2)C(=O)NC([C@@H](C)O)C(=O)N/C(=C(\C)OC)c2nc(cs2)C(=O)N[C@@H]2c4nc(cs4)C(=O)N[C@@H](COC(=O)c4c5c6c(cccc6n4O)COC(=O)[C@@H](O[C@H]4C[C@](C)(O)[C@H](N(C)C)[C@H](C)O4)[C@H]2OC5)c2nc-3cs2)n1)C(N)=O` (some centres not stated), the minimal inhibitory concentration (MIC) against Staphylococcus aureus worked out at 0.125 µg/mL (≈ 0.0803 µM); against Streptococcus pneumoniae it was 0.015 µg/mL (≈ 0.00964 µM); against Enterococcus faecalis it was 0.25 µg/mL (≈ 0.161 µM). For the same compound, the ED50 in the experiment with Mus musculus is 1.1 mg/kg.
On the same counts, the results for `CO/C(C)=C1/NC(=O)C([C@@H](C)O)NC(=O)c2csc(n2)-c2cc(O)c(-c3nc(C(=O)NC(SCCS(=O)(=O)[O-])C(N)=O)cs3)nc2-c2csc(n2)[C@@H]2COC(=O)c3c4c5c(cccc5n3O)COC(=O)[C@@H](O[C@H]3C[C@](C)(O)[C@H](N(C)C)[C@H](C)O3)[C@@H](OC4)[C@H](NC(=O)c3csc1n3)c1nc(cs1)C(=O)N2.[Na+]` (some centres not stated) are 4 µg/mL, 0.06 µg/mL, 128 µg/mL and > 10 mg/kg.
Turning to `CCN(CC)CCS(=O)(=O)C(NC(=O)c1csc(-c2nc3c(cc2O)-c2nc(cs2)C(=O)NC([C@@H](C)O)C(=O)N/C(=C(\C)OC)c2nc(cs2)C(=O)N[C@@H]2c4nc(cs4)C(=O)N[C@@H](COC(=O)c4c5c6c(cccc6n4O)COC(=O)[C@@H](O[C@H]4C[C@](C)(O)[C@H](N(C)C)[C@H](C)O4)[C@H]2OC5)c2nc-3cs2)n1)C(N)=O` (some centres not stated), the MIC with Staphylococcus aureus was 0.06 µg/mL (≈ 0.0378 µM); with Streptococcus pneumoniae, 0.007 µg/mL (≈ 0.00441 µM); against Enterococcus faecalis it was 0.03 µg/mL (≈ 0.0189 µM). In addition, the ED50 in the experiment with Mus musculus amounted to 1.4 mg/kg.
Taken in the same sequence, the figures for `COCC(Cn1ccnc1)SC(NC(=O)c1csc(-c2nc3c(cc2O)-c2nc(cs2)C(=O)NC([C@@H](C)O)C(=O)N/C(=C(\C)OC)c2nc(cs2)C(=O)N[C@@H]2c4nc(cs4)C(=O)N[C@@H](COC(=O)c4c5c6c(cccc6n4O)COC(=O)[C@@H](O[C@H]4C[C@](C)(O)[C@H](N(C)C)[C@H](C)O4)[C@H]2OC5)c2nc-3cs2)n1)C(N)=O` (some centres not stated) were 0.25 µg/mL (≈ 0.157 µM), 0.03 µg/mL (≈ 0.0188 µM), 0.125 µg/mL (≈ 0.0783 µM) and 1.4 mg/kg.
On the same counts, the results for `CO/C(C)=C1/NC(=O)C([C@@H](C)O)NC(=O)c2csc(n2)-c2cc(O)c(-c3nc(C(=O)NC(SCC(NC(C)=O)C(=O)O)C(N)=O)cs3)nc2-c2csc(n2)[C@@H]2COC(=O)c3c4c5c(cccc5n3O)COC(=O)[C@@H](O[C@H]3C[C@](C)(O)[C@H](N(C)C)[C@H](C)O3)[C@@H](OC4)[C@H](NC(=O)c3csc1n3)c1nc(cs1)C(=O)N2` (some centres not stated) are 2 µg/mL (≈ 1.26 µM), 0.125 µg/mL (≈ 0.0788 µM), 8 µg/mL (≈ 5.04 µM) and > 10 mg/kg.
For `CO/C(C)=C1/NC(=O)C([C@@H](C)O)NC(=O)c2csc(n2)-c2cc(O)c(-c3nc(C(=O)NC(SCCC(=O)O)C(N)=O)cs3)nc2-c2csc(n2)[C@@H]2COC(=O)c3c4c5c(cccc5n3O)COC(=O)[C@@H](O[C@H]3C[C@](C)(O)[C@H](N(C)C)[C@H](C)O3)[C@@H](OC4)[C@H](NC(=O)c3csc1n3)c1nc(cs1)C(=O)N2` (some centres not stated), the MIC was found to be 1 µg/mL (≈ 0.654 µM) with Staphylococcus aureus and 0.01 µg/mL (≈ 0.00654 µM) in the experiment on Streptococcus pneumoniae. In the experiment with Mus musculus, the ED50 was > 10 mg/kg.
For the compound `CO/C(C)=C1/NC(=O)C([C@@H](C)O)NC(=O)c2csc(n2)-c2cc(O)c(-c3nc(C(=O)NC(SCCN=C(N)N)C(N)=O)cs3)nc2-c2csc(n2)[C@@H]2COC(=O)c3c4c5c(cccc5n3O)COC(=O)[C@@H](O[C@H]3C[C@](C)(O)[C@H](N(C)C)[C@H](C)O3)[C@@H](OC4)[C@H](NC(=O)c3csc1n3)c1nc(cs1)C(=O)N2` (some centres not stated), the MIC was 4 µg/mL (≈ 2.59 µM) against Staphylococcus aureus, 2 µg/mL (≈ 1.3 µM) against Streptococcus pneumoniae and > 128 µg/mL in the experiment with Enterococcus faecalis.
On to `CO/C(C)=C1/NC(=O)C([C@@H](C)O)NC(=O)c2csc(n2)-c2cc(O)c(-c3nc(C(=O)NC(SCCc4cnccn4)C(N)=O)cs3)nc2-c2csc(n2)[C@@H]2COC(=O)c3c4c5c(cccc5n3O)COC(=O)[C@@H](O[C@H]3C[C@](C)(O)[C@H](N(C)C)[C@H](C)O3)[C@@H](OC4)[C@H](NC(=O)c3csc1n3)c1nc(cs1)C(=O)N2` (some centres not stated), for which the MIC with Staphylococcus aureus turned out to be 0.125 µg/mL (≈ 0.0799 µM); in the experiment with Streptococcus pneumoniae it was 0.015 µg/mL (≈ 0.00959 µM); in the experiment on Enterococcus faecalis it was 0.25 µg/mL (≈ 0.16 µM). For the same compound, in the experiment with Mus musculus, the ED50 came to 4.4 mg/kg.
On the same counts, the results for `CO/C(C)=C1/NC(=O)C([C@@H](C)O)NC(=O)c2csc(n2)-c2cc(O)c(-c3nc(C(=O)NC(SCC(=O)O)C(N)=O)cs3)nc2-c2csc(n2)[C@@H]2COC(=O)c3c4c5c(cccc5n3O)COC(=O)[C@@H](O[C@H]3C[C@](C)(O)[C@H](N(C)C)[C@H](C)O3)[C@@H](OC4)[C@H](NC(=O)c3csc1n3)c1nc(cs1)C(=O)N2` (some centres not stated) are 2 µg/mL (≈ 1.32 µM), 0.125 µg/mL (≈ 0.0825 µM), 1 µg/mL (≈ 0.66 µM) and > 10 mg/kg.
For `CO/C(C)=C1/NC(=O)C([C@@H](C)O)NC(=O)c2csc(n2)-c2cc(O)c(-c3nc(C(=O)NC(SCCP(=O)([O-])O)C(N)=O)cs3)nc2-c2csc(n2)[C@@H]2COC(=O)c3c4c5c(cccc5n3O)COC(=O)[C@@H](O[C@H]3C[C@](C)(O)[C@H](N(C)C)[C@H](C)O3)[C@@H](OC4)[C@H](NC(=O)c3csc1n3)c1nc(cs1)C(=O)N2.[Na+]` (some centres not stated), the MIC was found to be 2 µg/mL in the experiment on Staphylococcus aureus, 0.25 µg/mL in the experiment on Streptococcus pneumoniae and 32 µg/mL in the experiment on Enterococcus faecalis.
On to `CO/C(C)=C1/NC(=O)C([C@@H](C)O)NC(=O)c2csc(n2)-c2cc(O)c(-c3nc(C(=O)NC(C(N)=O)S(=O)(=O)C4C5CCN4CC5)cs3)nc2-c2csc(n2)[C@@H]2COC(=O)c3c4c5c(cccc5n3O)COC(=O)[C@@H](O[C@H]3C[C@](C)(O)[C@H](N(C)C)[C@H](C)O3)[C@@H](OC4)[C@H](NC(=O)c3csc1n3)c1nc(cs1)C(=O)N2` (some centres not stated), for which the minimum inhibitory concentration (MIC) against Staphylococcus aureus was found to be 0.5 µg/mL (≈ 0.316 µM); with Streptococcus pneumoniae it was 0.06 µg/mL (≈ 0.0379 µM); against Enterococcus faecalis it was 1 µg/mL (≈ 0.631 µM).
For `C=C(NC(=O)c1csc(-c2nc3c(cc2O)-c2nc(cs2)C(=O)N[C@@H]([C@@H](C)O)C(=O)N/C(=C(\C)OC)c2nc(cs2)C(=O)N[C@@H]2c4nc(cs4)C(=O)N[C@@H](COC(=O)c4c5c6c(cccc6n4O)COC(=O)[C@@H](O[C@H]4C[C@](C)(O)[C@H](N(C)C)[C@H](C)O4)[C@H]2OC5)c2nc-3cs2)n1)C(N)=O` [MJ347-81F4 A], the minimum inhibitory concentration (MIC) against Staphylococcus aureus came to 0.007 µg/mL (≈ 0.00487 µM); against Streptococcus pneumoniae, 0.002 µg/mL (≈ 0.00139 µM); in the experiment on Enterococcus faecalis, 0.03 µg/mL (≈ 0.0209 µM). Also, the ED50 in the experiment on Mus musculus is 0.8 mg/kg.
